In US6743436B1, “Anesthetic composition for intravenous injection comprising propofol” (Kuhnil Pharm. Co., Ltd., priority 1999, dated 2004):

Key:
[1] = background statement; cited from earlier work
albino rat = assay: Experiment 7: hemolysis after intravenous injection; type: in vivo; details: for Af (absorbance of released hemoglobin at 540 nm) / Hemolysis: i.v. over one minute, arterial blood
Description: To determine the hemolysis of the formulation of Example 6, albino rat was incised with scissor at the upper part of left femoral region, at which each of vein and artery was cannulated, and then 10 mg/kg of the formulated drug was intravenously injected over one minute. After 0, 5, 10, 15, 30, 45 and 60 minutes, blood was collected from femoral artery in an amount of 100 μl each time. Blood was obtained after heparin-physiological saline and some blood filled in the catheter were removed few, seconds before collecting blood each time. After blood was collected, a small amount of heparin-physiological saline was introduced into the catheter connecting tube to prevent blood coagulation. 100 μl of the collected blood were mixed with 500 μl of physiological saline and then centrifuged with 3000 rpm for 10 minutes. 100 μl of the supernatant were transferred into microplate and the absorbance of released hemoglobin was measured at 540 nm. Hemolysis (%) was calculated according to the following equation. The control group used 70% propylene glycol (PG) solution.
In the above equation, A100 is the absorbance at the time of 100% hemolysis (100 μl of blood was mixed with 500 μl of water); A0 is the absorbance at the time of 0% hemolysis as the blank (Before injection of the drug, normal blood was mixed with 500 μl of physiological saline for the blank test), and Af is the absorbance of each specimen.

Structure (SMILES)	octanol water partition coefficient [1]	pKa [1]	Af (absorbance of released hemoglobin at 540 nm) (albino rat; 5 min.)	Hemolysis (albino rat; 5 min.) [%]	Af (absorbance of released hemoglobin at 540 nm) (albino rat; 10 min.)	Hemolysis (albino rat; 10 min.) [%]	Af (absorbance of released hemoglobin at 540 nm) (albino rat; 15 min.)	Hemolysis (albino rat; 15 min.) [%]	Af (absorbance of released hemoglobin at 540 nm) (albino rat; 30 min.)	Hemolysis (albino rat; 30 min.) [%]	Af (absorbance of released hemoglobin at 540 nm) (albino rat; 45 min.)	Hemolysis (albino rat; 45 min.) [%]	Af (absorbance of released hemoglobin at 540 nm) (albino rat; 60 min.)	Hemolysis (albino rat; 60 min.) [%]	Af (absorbance of released hemoglobin at 540 nm) (albino rat; initial)	Hemolysis (albino rat; initial) [%]	absorbance relative to the formulation of Example 6 (albino rat; i.v., 0-60 min)	hemolysis (in words) (albino rat; i.v., 0-60 min)
CC(C)c1cccc(C(C)C)c1O [propofol, 2,6-diisopropylphenol]	4.33	10.4	–	–	–	–	–	–	–	–	–	–	–	–	–	–	–	–
CC(O)CO (stereo not drawn) [70% PG, propylene glycol]	–	–	0.086	1.94	0.091	2.06	0.067	1.47	0.038	0.76	0.047	0.98	0.041	0.84	0.081	1.82	80-90 times	causes hemolysis
